Measured values: US20200085831A1, “NASAL COMPOSITIONS STIMULATING CILIARY ACTIVITY” (Innotesto BVBA, priority 2013, published 2020)

Columns and labels:
[1] = system: ciliated cells; experiment: In vitro experiments with ciliated cells (ascorbic acid); assay type: cell-based; details: several in vitro experiments
Experimental: When ascorbic acid is added to the present disclosure composition, the pH of the final composition should be adapted to values between about 6-8 and preferably between about pH 7-7.5 by adding a small amount of sodium bicarbonate or other pH regulating agents.

[2] = adult population, Nawrot et al. 2003, cited from earlier work

SMILES	effect on the ciliary beat frequency [1]	daily intake not associated with adverse effects [2]	daily intake not associated with adverse effects, per bodyweight ([2]; equivalent of the mg per day level)
O=C1O[C@H]([C@@H](O)CO)C(O)=C1O [ascorbic acid]	increases the ciliary beat frequency		
Cn1c(=O)c2c(ncn2C)n(C)c1=O [Caffeine, 1,3,7-trimethylxanthine]		< 400 mg per day	about 6 mg/kg bodyweight
